Results: patent US10772882B2, “Pulmonary hypertension preventative or therapeutic agent containing crude drug” (TOHOKU UNIVERSITY, priority 2016, dated 2020)

Tests used:
[1] = test system: pulmonary artery smooth muscles derived from patients with pulmonary arterial hypertension; assay: MTT assay of cell proliferation of pulmonary artery smooth muscle cells from patients; format: cell-based, human; conditions: for suppressive effect on proliferation of pulmonary artery smooth muscle cells: final concentration 5 μM, same method as Example 1, data not shown
Text: The preventive or therapeutic agent for pulmonary hypertension of the present invention prevents or treats and ameliorates pulmonary hypertension by at least suppressing excessive proliferation of pulmonary artery smooth muscle cells. Accordingly, the present invention also provides a suppressor for excessive proliferation of pulmonary artery smooth muscle cells containing emetine or a salt thereof. […] However, emetine serving as the active ingredient of the present invention is a compound quite different in structure from IMD-0354 described above. Further, the inventors of the present invention examined N-p-tosyl-L-phenylalanine chloromethyl ketone, caffeic acid phenethyl ester, and Nα-p-tosyl-L-lysine chloromethyl ketone hydrochloride serving as compounds known to have NF-κB-inhibiting actions for their suppressive effects on the proliferation of pulmonary artery smooth muscle cells derived from patients with pulmonary hypertension by the same method as that described in Example 1 to be described later except that each of these compounds was added so that its final concentration was 5 μM. […] Also from such viewpoints, the suppressive effect of emetine on excessive proliferation of pulmonary artery smooth muscle cells and the preventive or therapeutic effect of emetine on pulmonary hypertension in the present invention are unpredictable from the related art. The active ingredient, dosage form, dose, and the like of the suppressor for excessive proliferation of pulmonary artery smooth muscle cells are the same as those of the preventive or therapeutic agent for pulmonary hypertension.
Pulmonary artery smooth muscles derived from patients with pulmonary arterial hypertension were treated with 1 nmol/L to 5 μmol/L emetine solutions (the emetine solutions were prepared with distilled water), and were cultured for 0 hours and 48 hours, followed by an MTT assay to assess cell proliferation rates. Specifically, smooth muscle cells were seeded in 96-well plates at 5,000 cells/well, and 24 hours after the seeding, emetine was added so that its final concentrations were adjusted to from 1 nmol/L to 5 μmol/L. The results are shown in FIG. 1.

SU5416/Hypoxia model = assay: SU5416/Hypoxia pulmonary hypertension model; format: in vivo, rats (SD rats); conditions: 0.01 mg/kg or 0.05 mg/kg orally daily, week 8 to week 11 after SU5416; vs control group; FIG. 3
Method: In addition, an in vivo test using an SU5416/Hypoxia model was also performed. Specifically, first, an SU5416 (semaxanib) solution used for the production of the model was prepared by dissolving SU5416 using carboxy methyl cellulose (CMC). An emetine solution was prepared in the same manner as described above.
Six-week-old rats (SD rats, n=9) were administered 20 mg/kg SU5416 and then bred in a hypoxic chamber using a hypoxicator to be exposed to hypoxia (oxygen concentration: from 8% to 12%) for 3 weeks and then to normoxia. Then, the rats were orally administered 0.01 mg/kg or 0.05 mg/kg emetine daily for a period from the first day of week 8 after the SU5416 administration to the final day of week 11, and were sacrificed on the final day of week 11. Then, the extent of pulmonary hypertension was assessed in the same manner as in the monocrotaline-induced pulmonary hypertension model.

[2] = test system: monocrotaline-induced pulmonary hypertension model; assay: monocrotaline-induced pulmonary hypertension model; format: in vivo, rats (SD rats); conditions: 0.01 mg/kg or 0.05 mg/kg orally daily for 3 weeks after 60 mg/kg monocrotaline s.c.; vs control group; FIG. 2
Method: In vivo tests using pulmonary hypertension animal models were performed on emetine. Specifically, first, the influence of emetine on a monocrotaline-induced pulmonary hypertension model was investigated. A monocrotaline solution used for the production of the pulmonary hypertension model was prepared by dissolving monocrotaline with 1 mol/L hydrochloric acid and then adjusting the pH to 7.4 through titration with 1 mol/L sodium hydroxide using a pH meter. An emetine solution was prepared with distilled water. The monocrotaline-induced pulmonary hypertension model was produced by subcutaneously injecting 6-week-old rats (SD rats, n=13) with 60 mg/kg monocrotaline. After the subcutaneous injection with monocrotaline, the rats were orally administered 0.01 mg/kg or 0.05 mg/kg emetine daily for 3 weeks. A vehicle group was sacrificed 3 weeks after the administration of distilled water to measure right ventricular systolic pressure with Mikro-Tip Catheter transducers 2F (Millar). In addition, after formalin fixation, the right ventricle was removed from the left ventricle to measure a right ventricle/(left ventricle plus septum) weight ratio. Then, the extent of pulmonary hypertension was assessed on the basis of those results.

[3] = test system: transcription factor NF-κB; conditions: Non-patent Literature 4 and 5; cited from earlier work
[4] = test system: pulmonary artery smooth muscle cells; conditions: Non-patent Literature 5; cited from earlier work

With `CC[C@H]1CN2CCc3cc(OC)c(OC)cc3[C@@H]2C[C@@H]1C[C@H]1NCCc2cc(OC)c(OC)cc21` [emetine] the “cell proliferation rate (MTT assay)” value ([1]; emetine 1 nmol/L to 5 μmol/L, cultured 48 hours, FIG. 1) was “suppressed proliferation of the pulmonary artery smooth muscles derived from patients with pulmonary arterial hypertension in a concentration-dependent manner”, the “right ventricle/(left ventricle plus septum) weight ratio” value (SU5416/Hypoxia model) was “alleviated” and the “right ventricular systolic pressure” value (SU5416/Hypoxia model) was “alleviated”. The “right ventricle/(left ventricle plus septum) weight ratio” value [2] was “suppressed”, the “right ventricular systolic pressure” value [2] was “suppressed” and the NF-κB inhibition [3] was “known to inhibit a transcription factor NF-κB”.

In the case of `O=C(/C=C/c1ccc(O)c(O)c1)OCCc1ccccc1` [caffeic acid phenethyl ester], the “suppressive effect on proliferation of pulmonary artery smooth muscle cells” value (from here on “suppressive effect on proliferation”) [1] is reported as “not sufficiently suppressed”.

For `O=C(Nc1cc(C(F)(F)F)cc(C(F)(F)F)c1)c1cc(Cl)ccc1O` [IMD-0354, N-[3,5-bis(trifluoromethyl)phenyl]-5-chloro-2-hydroxybenzamide], the “proliferation of pulmonary artery smooth muscle cells” value [4] is listed as “suppresses the proliferation of pulmonary artery smooth muscle cells” and the NF-κB inhibition [3] is listed as “has an NF-κB-inhibiting action”.

With `Cc1ccc(S(=O)(=O)N[C@@H](Cc2ccccc2)C(=O)CCl)cc1` [N-p-tosyl-L-phenylalanine chloromethyl ketone] the “suppressive effect on proliferation” value [1] was “not sufficiently suppressed”.

With `Cc1ccc(S(=O)(=O)N[C@@H](CCCCN)C(=O)CCl)cc1.Cl` [Nα-p-tosyl-L-lysine chloromethyl ketone hydrochloride] the “suppressive effect on proliferation” value [1] was “not sufficiently suppressed”.
